This test deals with T1, human HSD17β13 (stable HEK293T cell line overexpressing human HSD17β13) (Homo sapiens, UniProt Q7Z5P4).
T1 construct: expressed in transfected cells
T1 sequence (Q7Z5P4 20-300): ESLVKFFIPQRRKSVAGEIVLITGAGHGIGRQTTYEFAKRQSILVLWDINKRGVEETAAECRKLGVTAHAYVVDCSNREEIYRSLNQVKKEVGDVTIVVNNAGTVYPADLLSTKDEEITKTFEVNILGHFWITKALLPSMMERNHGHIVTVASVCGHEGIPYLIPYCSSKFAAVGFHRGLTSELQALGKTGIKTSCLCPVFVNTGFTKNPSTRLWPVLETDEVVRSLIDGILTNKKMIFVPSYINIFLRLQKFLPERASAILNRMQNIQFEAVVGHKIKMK
Nature of the test: HSD17β13 inhibitor cell-based screening assay (conversion of estradiol-d2 to estrone-d2 by RF-MS). The conditions noted are these: conversion of estradiol-d2 to estrone-d2 after 24 hours. The method, then: The purpose of this cell-based assay is to determine the cellular efficacy (IC50) of HSD17β13 inhibitors in a stable HEK293 T cell line overexpressing human HSD17β13. The assay measures by Rapid Fire mass-spectrometry (RF-MS) the conversion of estradiol-d2 to estrone-d2. Cytotoxicity was also assessed via luminescent signal generated by the ATPlite viability assay reagent. To screen compounds for HSD17013 inhibition, black 384-well plates were seeded with 1000× concentration of compounds in a 9-point 1:3 dilution curve (final top concentration of 10 μM) as well as 1000× concentration of 17β-estradiol-d2 (5 μM final concentration) added to all wells. HEK293T cells stably overexpressing human HSD17013 and the parent HEK293T cell lines were then seeded in the plates on top of the compounds and substrate in MEM media containing 1% charcoal/dextran-treated FBS. Supernatant is collected and immediately frozen after 24 hours of incubation, and conversion of estradiol-d2 to estrone-d2 is measured at Pure Honey by RF-MS. The remaining media in the plate was removed from the wells and replaced with ATPlite viability assay reagent. Luminescent signal from the ATPlite reagent was measured on the Envision plate reader. 10 μL of 10 mM compounds stocks (1000×) dissolved in DMSO were pipetted into the appropriate wells on the 384 LDV plate (Labcyte; cat. no.: LP-0200) and the appropriate volumes of DMSO solvent were included onto an intermediate plate to further dilute the compound stocks to complete the 9-pt dose curve (final top concentration of 10 μM). 10 μL per well of 5 mM estradiol-d2 (1000×) (Cayman; item no.: 9002846) (5 μM final concentration) dissolved in DMSO was seeded into the appropriate number of wells on the same source plate as the compounds. The Echo 650 (Labcyte) was used for compound dilutions and dispensing both the compounds and the substrate onto a dry 384-well black assay plate (Falcon/Corning; cat. no.:353962). Afterwards, cells were immediately counted and seeded onto the plate. Cells were cultured for expansion in EMEM (ATCC; cat. no.: 30-2003)+10% FBS (Hyclone; cat. no.: SH3007003)+1×PenStrep (Gibco; cat. no.: 15140-122). All media for stable cell line overexpressing HSD17013 also included […] zeocin (Invitrogen; cat. no.: 46-0509) for selection. To prepare cells for seeding into the 384-well assay plate, cells were trypsinized for 3 minutes in the incubator. The Trypsin-EDTA (0.25%) (Gibco; cat. no.: 25200056) was neutralized with EMEM complete culture medium warmed to 37° C. Cells were then centrifugated at 300×g for 5 minutes at room temperature. The cell pellet was resuspended in phenol red-free MEM (Gibco; cat. no.: 51200-038)+1% charcoal/dextran-treated FBS (Hyclone; cat. no.: SH3006803) and 1×PenStrep warmed to 37° C. Cells were then counted using the TC20 automated cell-counter (Bio-Rad) and disposable duel chamber counting slides (Bio-Rad; cat. no.: 1450016) for a cell density of 1.5E5 cells/mL to then seed into the assay plate at 7.5E3 cells/well with 50 μL of media per well. Prior to the 24-hour time point, a solution of 1% formic acid (10×) (Honeywell; cat. no.: 94318) in MEM phenol red-free MEM+1% charcoal/dextran-treated FBS and 1×PenStrep was made. ATPlite luminescent ATP detection reagent (PerkinElmer; cat. no.: 6016739) was prepared according to the manufacturer's instructions. A new 384-well Falcon plate (collection plate) was seeded with 2 μL per well of 10× formic acid and then 18 μL of cell supernatant was added onto the formic acid, resulting in a 20 μL per well solution of 0.1% formic acid (1×) in supernatant. The plate of collected supernatant was immediately frozen on dry ice before being stored at −80° C. The collection plate was shipped to Momentum Biotechnologies for analysis. The remaining supernatant in the assay plate was discarded and 25 μL of ATPlite reagent was added to each well. […]

Each structure is given as a SMILES string.

`COc1ccc(-c2nc3sc4c(S(=O)(=O)O)cccc4c3c(=O)n2Cc2cnco2)c(C2CC2)c1` [Example 12, 2-(2-cyclopropyl-4-methoxyphenyl)-3-(oxazol-5-ylmethyl)-4-oxo-3,4-dihydrobenzo[4,5]thieno[2,3-d]pyrimidine-8-sulfonic acid]: the IC50 (in general, the concentration that inhibits the measured activity by half) lay in the range of 1000 to 100000 nM.
`COc1ccc(-c2nc3sc4c(OC(C)=O)c(Cl)ccc4c3c(=O)n2Cc2cnco2)c(C2CC2)c1` [Example 27, 7-chloro-2-(2-cyclopropyl-4-methoxyphenyl)-3-(oxazol-5-ylmethyl)-4-oxo-3,4-dihydrobenzo[4,5]thieno[2,3-d]pyrimidin-8-yl acetate] yielded an IC50 of less than 100 nM.
Next, `COc1ccc(-c2nc3sc4c(O)c(C=O)ccc4c3c(=O)n2Cc2cnco2)c(C2CC2)c1` [Example 31, 2-(2-cyclopropyl-4-methoxyphenyl)-8-hydroxy-3-(oxazol-5-ylmethyl)-4-oxo-3,4-dihydrobenzo[4,5]thieno[2,3-d]pyrimidine-7-carbaldehyde]: 1000 to 100000 nM; `COc1ccc(-c2nc3sc4c(O)c(C#N)ccc4c3c(=O)n2Cc2cnco2)c(C2CC2)c1` [Example 33, 2-(2-cyclopropyl-4-methoxyphenyl)-8-hydroxy-3-(oxazol-5-ylmethyl)-4-oxo-3,4-dihydrobenzo[4,5]thieno[2,3-d]pyrimidine-7-carbonitrile]: 500 to 1000 nM; `COc1ccc(-c2nc3sc4c(O)c(C(=O)O)ccc4c3c(=O)n2Cc2cnco2)c(C2CC2)c1` [Example 34, 2-(2-cyclopropyl-4-methoxyphenyl)-8-hydroxy-3-(oxazol-5-ylmethyl)-4-oxo-3,4-dihydrobenzo[4,5]thieno[2,3-d]pyrimidine-7-carboxylic acid]: 1000 to 100000 nM.
To `COc1ccc(-c2nc3sc4c(O)c(-c5ccccc5)ccc4c3c(=O)n2Cc2cnco2)c(C2CC2)c1` [Example 35, 2-(2-cyclopropyl-4-methoxyphenyl)-8-hydroxy-3-(oxazol-5-ylmethyl)-7-phenylbenzo[4,5]thieno[2,3-d]pyrimidin-4(3H)-one] belongs 1000 to 100000 nM.
Next, `COc1ccc(-c2nc3sc4c(Br)c(O)ccc4c3c(=O)n2Cc2cnco2)c(C2CC2)c1` [Example 37, 8-bromo-2-(2-cyclopropyl-4-methoxyphenyl)-7-hydroxy-3-(oxazol-5-ylmethyl)benzo[4,5]thieno[2,3-d]pyrimidin-4(3H)-one]: 1000 to 100000 nM; `COc1ccc(-c2nc3sc4c(ccc5oc(=O)[nH]c54)c3c(=O)n2Cc2cnco2)c(C2CC2)c1` [Example 38, 8-(2-cyclopropyl-4-methoxyphenyl)-7-(oxazol-5-ylmethyl)oxazolo[4″,5″:3′,4′]benzo[1′,2′:4,5]thieno[2,3-d]pyrimidine-2,6(1H,7H)-dione]: 1000 to 100000 nM.
Molecule `COC(=O)Cn1c(-c2ccc(OC)cc2C2CC2)nc2sc3c(O)c(Cl)ccc3c2c1=O` [Example 45, methyl 2-(7-chloro-2-(2-cyclopropyl-4-methoxyphenyl)-8-hydroxy-4-oxobenzo[4,5]thieno[2,3-d]pyrimidin-3(4H)-yl)acetate] had an IC50 of 100 to 500 nM.
Regarding `COc1ccc(-c2nc3sc4c(O)c(Cl)ccc4c3c(=O)n2CC(=O)O)c(C2CC2)c1` [Example 46, 2-(7-chloro-2-(2-cyclopropyl-4-methoxyphenyl)-8-hydroxy-4-oxobenzo[4,5]thieno[2,3-d]pyrimidin-3(4H)-yl)acetic acid], the IC50 was 1000 to 100000 nM.
To `COc1ccc(-c2nc3sc4c(O)c(Cl)ccc4c3c(=O)n2Cc2ccno2)c(C2CC2)c1` [Example 47, 7-chloro-2-(2-cyclopropyl-4-methoxyphenyl)-8-hydroxy-3-(isoxazol-5-ylmethyl)benzo[4,5]thieno[2,3-d]pyrimidin-4(3H)-one] belongs less than 100 nM; to `COc1ccc(-c2nc3sc4c(O)c(Cl)ccc4c3c(=O)n2Cc2cnc(C3CC3)o2)c(C2CC2)c1` [Example 49, 7-chloro-2-(2-cyclopropyl-4-methoxyphenyl)-3-((2-cyclopropyloxazol-5-yl)methyl)-8-hydroxybenzo[4,5]thieno[2,3-d]pyrimidin-4(3H)-one], less than 100 nM.
To `COc1ccc(-c2nc3sc4c(O)c(Cl)ccc4c3c(=O)n2CC(=O)NCCO)c(C2CC2)c1` [Example 51, 2-(7-chloro-2-(2-cyclopropyl-4-methoxyphenyl)-8-hydroxy-4-oxobenzo[4,5]thieno[2,3-d]pyrimidin-3(4H)-yl)-N-(2-hydroxyethyl)acetamide] belongs 500 to 1000 nM; to `COc1ccc(-c2nc3sc4c(O)c(Cl)ccc4c3c(=O)n2Cc2sc(C)nc2C)c(C2CC2)c1` [Example 53, 7-chloro-2-(2-cyclopropyl-4-methoxyphenyl)-3-((2,4-dimethylthiazol-5-yl)methyl)-8-hydroxybenzo[4,5]thieno[2,3-d]pyrimidin-4(3H)-one], less than 100 nM.
For `COc1ccc(-c2nc3sc4c(O)c(Cl)ccc4c3c(=O)n2CC2=NCCO2)c(C2CC2)c1` [Example 54, 7-chloro-2-(2-cyclopropyl-4-methoxyphenyl)-3-((4,5-dihydrooxazol-2-yl)methyl)-8-hydroxybenzo[4,5]thieno[2,3-d]pyrimidin-4(3H)-one], the IC50 fell in the range of 100 to 500 nM.
To `COc1ccc(-c2nc3sc4c(O)ccc(F)c4c3c(=O)n2Cc2cnco2)c(C2CC2)c1` [Example 55, 2-(2-cyclopropyl-4-methoxyphenyl)-5-fluoro-8-hydroxy-3-(oxazol-5-ylmethyl)benzo[4,5]thieno[2,3-d]pyrimidin-4(3H)-one] belongs less than 100 nM.
To `COc1ccc(-c2nc3sc4c(O)c(F)ccc4c3c(=O)n2Cc2cnco2)c(C2CC2)c1` [Example 56, 2-(2-cyclopropyl-4-methoxyphenyl)-7-fluoro-8-hydroxy-3-(oxazol-5-ylmethyl)benzo[4,5]thieno[2,3-d]pyrimidin-4(3H)-one] belongs less than 100 nM; to `COc1ccc(-c2nc3sc4c(O)c(Cl)ccc4c3c(=O)n2Cc2cnoc2)c(C2CC2)c1` [Example 57, 7-chloro-2-(2-cyclopropyl-4-methoxyphenyl)-8-hydroxy-3-(isoxazol-4-ylmethyl)benzo[4,5]thieno[2,3-d]pyrimidin-4(3H)-one], less than 100 nM; to `COc1ccc(-c2nc3sc4c(O)c(Cl)ccc4c3c(=O)n2Cc2cnc(C)nc2)c(C2CC2)c1` [Example 58, 7-chloro-2-(2-cyclopropyl-4-methoxyphenyl)-8-hydroxy-3-((2-methylpyrimidin-5-yl)methyl)benzo[4,5]thieno[2,3-d]pyrimidin-4(3H)-one], less than 100 nM.
Next, `COc1ccc(-c2nc3sc4c(O)c(Cl)ccc4c3c(=O)n2Cc2cnc(C)o2)c(C2CC2)c1` [Example 59, 7-chloro-2-(2-cyclopropyl-4-methoxyphenyl)-8-hydroxy-3-((2-methyloxazol-5-yl)methyl)benzo[4,5]thieno[2,3-d]pyrimidin-4(3H)-one]: less than 100 nM; `Cc1cc(Cn2c(-c3cc(F)c(F)cc3C3CC3)nc3sc4c(O)c(Cl)ccc4c3c2=O)on1` [Example 60, 7-chloro-2-(2-cyclopropyl-4,5-difluorophenyl)-8-hydroxy-3-((3-methylisoxazol-5-yl)methyl)benzo[4,5]thieno[2,3-d]pyrimidin-4(3H)-one]: less than 100 nM.

The values are drawn from patent publication US20250154163A1, “Pyrimidinone-Containing 17-Beta-Hydroxysteroid Dehydrogenase Type 13 Inhibitors” (ENANTA PHARMACEUTICALS, INC., priority 2023, published 2025).
